How the values were obtained:
[1] = target: Cannabinoid receptor 2 (Homo sapiens, UniProt P34972); test: Displacement of [3H]-CP55940 from human recombinant CB2 receptor expressed in HEK293 cells after 90 mins by scintillation counting analysis; format: cell-based
[2] = target: Cannabinoid receptor 1 (Homo sapiens, UniProt P21554); test: Displacement of [3H]-CP55940 from human recombinant CB1 receptor expressed in HEK293 cells after 90 mins by scintillation counting analysis; format: cell-based
[3] = species: Homo sapiens; test: Selectivity ratio of Ki for human recombinant CB2 receptor to Ki for human recombinant CB1 receptor

Chain of Cannabinoid receptor 1 (P21554 whole entry): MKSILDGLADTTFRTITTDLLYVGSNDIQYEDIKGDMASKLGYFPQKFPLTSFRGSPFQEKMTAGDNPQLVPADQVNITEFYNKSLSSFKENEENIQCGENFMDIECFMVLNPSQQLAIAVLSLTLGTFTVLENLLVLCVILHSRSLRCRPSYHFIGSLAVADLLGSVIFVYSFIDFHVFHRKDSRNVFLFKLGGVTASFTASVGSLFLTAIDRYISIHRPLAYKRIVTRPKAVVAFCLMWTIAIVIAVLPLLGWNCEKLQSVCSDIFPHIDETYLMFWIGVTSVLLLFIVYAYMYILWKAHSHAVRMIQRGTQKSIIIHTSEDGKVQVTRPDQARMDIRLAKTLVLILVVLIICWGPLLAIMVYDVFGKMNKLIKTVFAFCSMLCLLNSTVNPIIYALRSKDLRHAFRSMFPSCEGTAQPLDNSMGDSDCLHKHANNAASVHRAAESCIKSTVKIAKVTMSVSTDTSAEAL
Chain of Cannabinoid receptor 2 (P34972 whole entry): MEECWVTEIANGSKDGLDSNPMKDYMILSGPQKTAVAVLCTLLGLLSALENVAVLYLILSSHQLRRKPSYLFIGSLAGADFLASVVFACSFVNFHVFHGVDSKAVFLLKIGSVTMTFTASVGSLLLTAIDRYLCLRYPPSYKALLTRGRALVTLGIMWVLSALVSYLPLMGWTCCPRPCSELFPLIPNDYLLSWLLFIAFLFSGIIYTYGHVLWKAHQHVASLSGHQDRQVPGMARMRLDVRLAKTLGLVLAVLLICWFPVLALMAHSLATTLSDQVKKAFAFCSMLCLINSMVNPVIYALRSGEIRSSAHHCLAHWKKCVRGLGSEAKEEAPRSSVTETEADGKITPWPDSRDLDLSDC

**Q.** `COC[C@@H](COC(C)=O)N(C)C(=O)CC/C=C/CCCCC(Cl)CCCCCCCl` (some centres not stated) was tested. Which Ki [1] did it give?
**A.** The Ki was 1030 nM.

**Q.** What about the Ki [2] of the same compound?
**A.** Its Ki is 590 nM.

**Q.** And the Ratio Ki [3]?
**A.** The Ratio Ki was 2.

**Q.** For `C=CCCC/C=C/C=C(\C)CCCC/C=C/CC/C=C\C(=O)NC(CO)CO`, which Ki [2] is on record?
**A.** The Ki was 470 nM.

**Q.** How did the Ki [1] turn out when `COC[C@@H](COC(C)=O)N(C)C(=O)CC/C=C/CCCCC(Cl)CCCCCC(Cl)Cl` (some centres not stated) was run?
**A.** The Ki was 860 nM.

**Q.** What about the Ki [2] of the same compound?
**A.** Its Ki is 410 nM.

**Q.** And the Ratio Ki [3]?
**A.** Its Ratio Ki is 2.

— ChEMBL document CHEMBL3596185, “Combining Mass Spectrometric Metabolic Profiling with Genomic Analysis: A Powerful Approach for Discovering Natural Products from Cyanobacteria” (J Nat Prod, 2015)
